Measurements taken from patent US20260174786A1, “A NITROGEN-CONTAINING SPIROCYCLIC COMPOUND, PHARMACEUTICAL COMPOSITION AND USE THEREOF” (Prime Gene Therapeutics Co., Ltd., priority 2022, published 2026).

Legend:
[1] = Liver microsome metabolism stability test (rat); format: in vitro ADME; details: rat liver microsomes, 1 μM compound
Experimental: Two separate experiments were conducted. a) NADPH: 10 μL of 20 mg/mL liver microsomes and 40 μL of 10 mM NADPH were added to a culture medium. The final concentrations of microsomes and NADPH were 0.5 mg/mL and 1 mM, respectively. b) NADPH free: 10 μL of 20 mg/mL liver microsomes and 40 μL of ultrapure H2O were added to a culture medium. The final concentration of microsomes was 0.5 mg/mL.
At the beginning of the reaction, 4 μL of 100 μM test compound solution or a control compound solution with a final concentration of 1 μM were added, and proceed at 37° C.
50 μL aliquots were taken from the reaction solution at 0, 7, 15, 30, and 60 minutes. The reaction was stopped by adding 4 volumes of cold acetonitrile and IS (100 nM alprazolam, 200 nM labetalol, 200 nM caffeine, and 2 μM ketoprofen). The samples were centrifuged at 3220 grams for 40 minutes. 100 μL supernatant divided equally was mixed with 100 μL of ultrapure H2O, and use for LC-MS/MS analysis.

[2] = Balanced dialysis plasma protein binding test (rat); format: in vitro ADME
Experimental: 1. Immersing a dialysis membrane (water: 60 minutes, 20% ethanol: 20 minutes, dialysis buffer: 20 minutes). 2. Diluting the test compound in dimethyl sulfoxide (working solution) to 200 μM. 3. Thawing the plasma in a 37° C. water bath and centrifuge the plasma at 3220 g for 10 minutes to remove blood clots. 4. Transferring the supernatant to a new tube and preheating it in a 37° C. water bath for 10 minutes. 5. Assembling HTD dialysis equipment according to the manufacturer's guidelines. 6. Adding 3 μL of 200 μM test compound to 597 μL of plasma and rotating at 1000 rpm for 2 minutes. 7. Transferring 50 μL of spiked plasma to a 96 well plate, then adding 50 μL of dialysis buffer and 200 μL of methanol, using IS * as the T0 sample. 8. Adding 120 μL of spiked plasma and 120 μL of dialysis buffer in duplicate into the chamber of the HTD dialysis device. 9. Covering the dialysis equipment with a breathable cover and incubating the dialysis equipment and the remaining spiked plasma at 37° C. (100 rpm, 5% CO2) for 6 hours. 10. Transferring 50 μL of dialyzed sample from the dialysis buffer and the plasma chamber to a separate 96 well plate, then adding 50 μL of blank plasma or dialysis buffer and 200 μL of methanol, with IS * as the B and P samples. 11. Transferring 50 μL of remaining spiked plasma (as described in step 9) to a 96 well plate, then adding 50 μL of dialysis buffer and 200 μL of methanol, with IS * as the T6 sample. 12. Centrifuging the sample plate at 3220 g for 40 minutes. 13. Transferring 100 μL of supernatant onto an analytical plate containing an appropriate volume of water for LC-MS/MS. 14. Data analysis.

[3] = Stability assessment of compounds at room temperature under 92.5% humidity (LC-MS); format: physicochemical; details: 92.5% humidity
Experimental: Taking the compound of Example 21 and KM-001-E1 in WO2021154966A1 as examples, the stability thereof was compared:
Compound of Example 21 and KM-001-E1 were accurately weighed and placed in penicillin bottles, and placed at room temperature under 92.5% humidity (open) conditions for 5-10 days to investigate the stability of the compounds.
• instrument: Thermo U3000-ISQEC • column: Xtimate UHPLC C18 1.8 μm 4.6*50 mm • Column temperature: 35° C. • wavelength: 210 nm, 254 nm • mobile phase A: 0.05% formic acid aqueous solution; mobile phase B: 0.05% formic acid acetonitrile; gradient: 30% B 0-1.2 min, 95% B 1.2-3.3 min, 30% B 3.3-4.5 min;
Analyzing the degradation impurities of each compound under 92.5% humidity conditions using LC-MS: The main impurities in Example 21 had m/z 427.17, with a retention time of 2.55 minutes. After being left for 10 days, the peak area proportion was only 0.3%; The main impurities in KM-001-E1 has m/z=431.14 and m/z=415.16, with retention times of 2.31 minutes and 2.64 minutes, respectively. […] Based on LC-MS and NMR data analysis, it can be inferred that the main impurities produced in Example 21 are ketones, while the main impurities produced in KM-001-E1 are aldehydes and carboxylic acids.

hTRPV1 = hTRPV1 (Homo sapiens, UniProt Q8NER1); assay: Inhibition rate on different hTRPs: hTRPV1; format: cell-based
Sequence of hTRPV1 (Q8NER1 whole entry): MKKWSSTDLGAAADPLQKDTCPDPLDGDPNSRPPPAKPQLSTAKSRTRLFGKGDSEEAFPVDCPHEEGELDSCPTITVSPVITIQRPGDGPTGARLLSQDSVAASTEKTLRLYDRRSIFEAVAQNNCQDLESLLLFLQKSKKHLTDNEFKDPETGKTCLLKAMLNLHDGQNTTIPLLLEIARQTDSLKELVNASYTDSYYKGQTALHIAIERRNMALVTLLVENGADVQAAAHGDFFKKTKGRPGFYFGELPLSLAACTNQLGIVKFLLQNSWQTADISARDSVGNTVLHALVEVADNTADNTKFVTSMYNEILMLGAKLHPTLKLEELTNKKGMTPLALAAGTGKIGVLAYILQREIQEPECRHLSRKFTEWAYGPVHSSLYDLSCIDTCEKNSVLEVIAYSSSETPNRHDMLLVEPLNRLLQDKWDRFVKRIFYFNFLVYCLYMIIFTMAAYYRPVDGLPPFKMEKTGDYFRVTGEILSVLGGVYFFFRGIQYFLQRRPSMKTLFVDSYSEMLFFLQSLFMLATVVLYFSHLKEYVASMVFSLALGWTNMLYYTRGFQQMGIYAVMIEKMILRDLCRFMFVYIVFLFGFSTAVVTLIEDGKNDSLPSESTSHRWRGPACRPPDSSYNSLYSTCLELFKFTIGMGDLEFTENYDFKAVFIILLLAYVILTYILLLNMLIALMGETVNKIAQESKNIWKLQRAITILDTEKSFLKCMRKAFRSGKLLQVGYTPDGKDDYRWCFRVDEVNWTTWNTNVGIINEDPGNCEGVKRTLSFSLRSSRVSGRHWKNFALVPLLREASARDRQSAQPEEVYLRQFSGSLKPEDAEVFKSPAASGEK

Structure (SMILES): O=C(c1ccc(F)cn1)N1CCC2(CC(O)c3cc(-c4ccccc4C4CC4)ccc32)C1 (stereo not drawn) [Example 15, (5-(2-cyclopropylphenyl)-3-hydroxy-2,3-dihydrospiro[indene-1,3′-pyrrolidine]-1′-yl)(5-fluoropyridin-2-yl) ketone]
- in vitro Clint [1]: 53.68 microliters/minute/milligrams
- half-life at 1 μM ([1]; read-out: in vitro T1/2): 25.8 min
- recover % [2]: 92.94%
- remaining % ([2]; 6 hours): 102.46%
- binding % ([2]; 6 hours dialysis): 99.78%
- dissociated % ([2]; 6 hours dialysis): 0.22%

Structure (SMILES): O=C(c1ccc(F)cn1)N1CC[C@@]2(C[C@@H](O)c3cc(-c4ccccc4C4CC4)ccc32)C1 [Example 21, ((1S,3R)-5-(2-cyclopropylphenyl)-3-hydroxy-2,3-dihydrospiro[indene-1,3′-pyrrolidine]-1′-yl)(5-fluoropyridin-2-yl)ketone]
- stability compared with KM-001-E1 / compounds of WO2021154966A1 [3]: better chemical stability than the primary alcohol compound in WO2021154966A1
- inhibition at 0.3 µM (hTRPV1; hTRPV1, 0.3 μM): 5.62%
- Selectivity ratio (hTRPV1; inhibition rate on TRPV3 / inhibition rate on hTRPV1, 0.3 μM): 16.0X
